What all share (experiment): NCI tumour cell line growth inhibition, 48 h
For assay [1], the system named is SF-539 CNS.
The test system of assay [2] is HCT-116 colon.
For assay [3], the system named is KM12 colon.
Assay [4] deals with SR leukemia.
Assay [5] concerns HOP-92 NSCLC.
Assay [6] deals with UACC-62 melanoma.
Assay [7] deals with MALME-3M melanoma.
Assay [8] relates to HCT-15 colon.
Assay [9] relates to UACC-257 melanoma.

The structures appear in SMILES notation.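 Tested at 5 concentrations; 48 h exposure; 96-well plates; endpoints linearly interpolated, else capped at highest concentration. GI50 = concentration required for 50% inhibition of growth. TGI: concentration producing complete growth inhibition.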

With `COC1=C(Br)C(=O)c2nc(C)ccc2C1=O`, the TGI in assay [1] came to 36.1 µM; in assay [2], 21.1 µM; in assay [3] it was 31.7 µM; in assay [4] it was 6.79 µM; in assay [5], 15.5 µM; in assay [6], 33.2 µM. The TGI in assay [7] turned out to be 30.5 µM; in [8], 27.7 µM; in assay [9], 26.6 µM.

Regarding `N.N.NCCCCCCCCCN.O=C([O-])CC(=O)[O-].O=C([O-])CC(=O)[O-].[Pt+4].[Pt+4]`, the GI50 in assay [1] is > 100 µM; in assay [2] it was > 100 µM; in [3], > 100 µM; in [5], > 100 µM; in assay [6], 23.1 µM; in [7] it was 28.9 µM. Besides, the GI50 in assay [8] and in assay [9] was > 100 µM each time. In addition, the TGI in assay [1] is > 100 µM; in [2] it was > 100 µM; in assay [3], > 100 µM; in [5], > 100 µM; in assay [6], > 100 µM; in assay [7], 73.3 µM. Besides, the TGI in [8] and in [9] was > 100 µM in each case.

As to `[F][Sn]([F])([c]1ccccc1)[c]1ccccc1`, the GI50 in assay [1] is 2.13 µM; in [2], 1.5 µM; in [3] it was 1.7 µM; in assay [4], 1.18 µM; in [5] it was 1.48 µM; in [6], 1.77 µM. The results for the GI50 in assay [7], in assay [8] and in [9] were 1.8 µM, 1.65 µM and 1.56 µM, respectively. Further, the TGI in assay [1] amounted to 4.09 µM; in [2], 3.26 µM; in assay [3], 3.43 µM; in assay [4], 3.81 µM; in assay [5], 3.13 µM; in assay [6], 5.15 µM. The TGI in assay [7] is 3.33 µM; in [8], 3.26 µM; in [9], 3.2 µM.

`Cc1cccc(C(C)C)c1NC(=O)C(=O)C(C(=O)c1ccccc1F)C1OC(=O)c2ccccc21` (stereo not drawn): the TGI was determined as 27.5 µM in [2]; 50 µM in assay [3]; 48.2 µM in [5]; 22.4 µM in assay [6]; 26.9 µM in assay [7]; 57.3 µM in assay [8]. In assay [9], the TGI was determined as 29.4 µM.

For the compound `CCOC(=O)Cn1c(=O)n(C)c(=O)c2c1ncn2Cc1ccccc1`, the TGI in [1], in assay [2], in assay [3], in assay [4], in assay [5] and in assay [6] was > 100 µM throughout. The TGI in assay [7] and in assay [8] was > 100 µM each time.

`COc1cc(C(=O)N2CCc3c([nH]c4c([N+](=O)[O-])c(OC)ccc34)C2C)cc(OC)c1OC` (stereo not drawn): the TGI in [1] was > 100 µM; in assay [2], > 100 µM; in [3], > 100 µM; in assay [4], > 100 µM; in assay [6] it was 39.5 µM; in [8] it was > 100 µM. The TGI in assay [9] was > 100 µM.

For `COC(=O)/C(=C\c1ccc(N(CCC#N)CCC#N)cc1)NC(=O)c1cc([N+](=O)[O-])ccc1Cl`, the TGI in [1] was > 100 µM; in assay [2] it was > 100 µM; in [3] it was > 100 µM; in assay [4] it was 81.5 µM; in assay [6], > 100 µM; in [7] it was > 100 µM. Further, the TGI in assay [8] and in assay [9] was > 100 µM each time.

Regarding `CC1=C(c2cc(C(=O)Nc3ccc(Cl)cc3)nc(=S)[nH]2)Sc2ccccc2N1`, the TGI in assay [1], in assay [2], in assay [3], in assay [5], in assay [6] and in [7] was > 100 µM throughout. Also, the TGI in assay [8] and in [9] was > 100 µM throughout.

For the compound `C/C(CCn1[nH]c(=O)ccc1=O)=N\OCCCc1ccccc1`, the TGI in [1], in [2], in assay [3], in assay [4], in assay [5] and in assay [6] was > 100 µM each time. For the same compound, the TGI in [7], in assay [8] and in assay [9] was > 100 µM each time.

With `Cc1cc(C(C)(C)C)cc(Cc2cc(C(C)(C)C)cc(Cc3cc(C(C)(C)C)cc(C)c3O)c2O)c1O`, the TGI in [1] was determined as 23.6 µM; in assay [2], 10.2 µM; in assay [3] it was 21.4 µM; in assay [5] it was 10.5 µM; in [6], 18.9 µM; in assay [7], 22.5 µM. Also, the TGI in assay [8] was determined as 24.3 µM; in [9], 20.8 µM.

Consider `c1ccc(CSc2nc3ccccc3nc2-c2cccs2)cc1`, for which the TGI in assay [1], in assay [2], in assay [3], in [5], in assay [7] and in assay [8] was > 100 µM in each case. Besides, the TGI in assay [9] was > 100 µM.

`CCOc1ccccc1NC(=O)C(=O)Cc1nc2ccccc2s1`: the TGI in assay [1], in assay [2], in assay [3], in assay [4], in assay [5] and in [6] was > 100 µM in each case. Besides, the TGI in assay [7], in assay [8] and in [9] was > 100 µM throughout.

In the case of `CC1=C(C(=O)NNS(=O)(=O)c2ccc(C)cc2)CC(C(=O)NNS(=O)(=O)c2ccc(C)cc2)=C(C)N1`, the TGI was > 100 µM in assay [1]; > 100 µM in assay [2]; > 100 µM in [3]; > 100 µM in [4]; 47.2 µM in assay [6]; > 100 µM in [7]. The TGI in assay [8] and in [9] was > 100 µM each time.

On to `Cc1cccc(N=C2NC(=O)C(CC(=O)Nc3cccc(C)c3C)S2)c1` (stereo not drawn), for which the TGI in assay [2], in [3], in assay [5], in assay [6], in assay [7] and in [9] was > 100 µM throughout.

These data come from PubChem BioAssay (NCI).
